Reference: ChEMBL document CHEMBL1201862, “PubChem BioAssay data set” (2004)
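Results reflect a 48-hour exposure of cells in 96-well plates to compound at five concentrations. Abbreviation: GI50, concentration required for 50% inhibition of growth.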 The source made the active and inactive calls. Rule as the data show it: active = GI50 up to about 1.1 µM and inactive = higher. Non-standard residues stand in square brackets, D forms with d. Residues, ends and D or L forms follow the SMILES beside them. *: point of attachment. Bn2Val = CC(C)[C@@H](C(=O)*)N(Cc1ccccc1)Cc1ccccc1; NH(4-Cl-benzyl) = Clc1ccc(CN*)cc1; NMeV = CN[C@H](C(=O)O)C(C)C; dNMeA = CN[C@H](C)C(=O)O

Tests used:
Experiment in all cases: inhibition of tumour cell growth, NCI panel, 48 h
[1] = tested on: 786-0
[2] = tested on: A498
[3] = tested on: A549
[4] = tested on: ACHN
[5] = tested on: BT-549
[6] = tested on: CAKI-1
[7] = tested on: CCRF-CEM
[8] = tested on: COLO 205
[9] = tested on: DU-145
[10] = tested on: EKVX
[11] = tested on: HCT-116
[12] = tested on: HCT-15
[13] = tested on: HL-60
[14] = tested on: HOP-62
[15] = tested on: HOP-92
[16] = tested on: HT-29
[17] = tested on: Hs-578T
[18] = tested on: IGROV-1
[19] = tested on: K562
[20] = tested on: KM12
[21] = tested on: LOX IMVI
[22] = tested on: M14
[23] = tested on: MDA-MB-231
[24] = tested on: MDA-MB-435
[25] = tested on: MDA-N
[26] = tested on: MOLT-4
[27] = tested on: Malme-3M
[28] = tested on: NCI-H226
[29] = tested on: NCI-H23
[30] = tested on: NCI-H460
[31] = tested on: NCI/ADR-RES
[32] = tested on: OVCAR-3
[33] = tested on: OVCAR-4
[34] = tested on: OVCAR-5
[35] = tested on: OVCAR-8
[36] = tested on: PC-3
[37] = tested on: RPMI-8226
[38] = tested on: RXF 393
[39] = tested on: SF-268
[40] = tested on: SF-295
[41] = tested on: SF-539
[42] = tested on: SK-MEL-28
[43] = tested on: SK-MEL-2
[44] = tested on: SK-OV-3
[45] = tested on: SN12C
[46] = tested on: SNB-19
[47] = tested on: SNB-75
[48] = tested on: SR
[49] = tested on: SW-620
[50] = tested on: T47D
[51] = tested on: TK-10
[52] = tested on: U-251
[53] = tested on: UACC-257
[54] = tested on: UACC-62
[55] = tested on: UO-31
[56] = tested on: NCI-H522
[57] = tested on: SK-MEL-5

## Cc1nn(C(=O)c2ccccc2O)c2c1C(c1ccco1)SC(=N)N2 (stereo not given)
[1]
  GI50: 7.01 µM (inactive)
[2]
  GI50: 6.07 µM (inactive)
[3]
  GI50: 4.43 µM (inactive)
[4]
  GI50: 3.42 µM (inactive)
[5]
  GI50: > 10 µM (inactive)
[6]
  GI50: 3.48 µM (inactive)
[7]
  GI50: 2.95 µM (inactive)
[8]
  GI50: 5.83 µM (inactive)
[9]
  GI50: 3.63 µM (inactive)
[10]
  GI50: > 10 µM (inactive)
[11]
  GI50: 3.34 µM (inactive)
[12]
  GI50: 3.53 µM
[13]
  GI50: 4.94 µM (inactive)
[14]
  GI50: 2.58 µM (inactive)
[15]
  GI50: 4.59 µM (inactive)
[16]
  GI50: > 10 µM (inactive)
[17]
  GI50: 6.92 µM (inactive)
[18]
  GI50: 4.42 µM (inactive)
[19]
  GI50: 2.93 µM (inactive)
[20]
  GI50: 5.47 µM (inactive)
[21]
  GI50: 3.73 µM (inactive)
[22]
  GI50: 3.5 µM (inactive)
[23]
  GI50: 5.79 µM (inactive)
[24]
  GI50: 7.29 µM (inactive)
[25]
  GI50: 7.4 µM (inactive)
[26]
  GI50: 3.61 µM (inactive)
[27]
  GI50: > 10 µM (inactive)
[28]
  GI50: 3.43 µM (inactive)
[29]
  GI50: > 10 µM (inactive)
[30]
  GI50: 4.32 µM (inactive)
[31]
  GI50: 3.22 µM (inactive)
[32]
  GI50: 3.32 µM (inactive)
[33]
  GI50: 3.04 µM (inactive)
[34]
  GI50: > 10 µM (inactive)
[35]
  GI50: 3.61 µM (inactive)
[36]
  GI50: 3.73 µM (inactive)
[37]
  GI50: 4.43 µM (inactive)
[38]
  GI50: 7.1 µM (inactive)
[39]
  GI50: 4.09 µM (inactive)
[40]
  GI50: > 10 µM (inactive)
[41]
  GI50: 4.28 µM (inactive)
[42]
  GI50: 6.41 µM (inactive)
[43]
  GI50: > 10 µM (inactive)
[44]
  GI50: 3.3 µM (inactive)
[45]
  GI50: 5.93 µM (inactive)
[46]
  GI50: > 10 µM (inactive)
[47]
  GI50: 1.45 µM (inactive)
[48]
  GI50: 4.9 µM (inactive)
[49]
  GI50: 5.24 µM (inactive)
[50]
  GI50: 4.83 µM (inactive)
[51]
  GI50: > 10 µM (inactive)
[52]
  GI50: 5.28 µM (inactive)
[53]
  GI50: 9.89 µM (inactive)
[54]
  GI50: 2.13 µM (inactive)
[55]
  GI50: 5.6 µM (inactive)

## CC(C)[C@H](NC(=O)[C@H](C(C)C)N(Cc1ccccc1)Cc1ccccc1)C(=O)N(C)[C@H](C(=O)N1CCC[C@H]1C(=O)N(C)[C@H](C)C(=O)NCc1ccc(Cl)cc1)C(C)C (Bn2Val-V[NMeV]P[dNMeA]-{NH(4-Cl-benzyl)})
[1]
  GI50: 3.26 µM (inactive)
[3]
  GI50: 4.04 µM (inactive)
[4]
  GI50: 2.98 µM (inactive)
[5]
  GI50: 3.18 µM (inactive)
[6]
  GI50: 5.94 µM (inactive)
[7]
  GI50: 2.42 µM (inactive)
[8]
  GI50: 2.09 µM (inactive)
[9]
  GI50: 4.11 µM (inactive)
[10]
  GI50: 2.46 µM (inactive)
[11]
  GI50: 3.02 µM (inactive)
[12]
  GI50: 3.13 µM
[13]
  GI50: 1.77 µM (inactive)
[14]
  GI50: 4.38 µM (inactive)
[15]
  GI50: 2.84 µM (inactive)
[16]
  GI50: 1.74 µM (inactive)
[17]
  GI50: 1.05 µM (active)
[18]
  GI50: 2.69 µM (inactive)
[19]
  GI50: 4.04 µM (inactive)
[20]
  GI50: 3.38 µM (inactive)
[21]
  GI50: 1.85 µM (inactive)
[22]
  GI50: 4.01 µM (inactive)
[23]
  GI50: 2.65 µM (inactive)
[24]
  GI50: 4.03 µM (inactive)
[25]
  GI50: 4.43 µM (inactive)
[26]
  GI50: 2.42 µM (inactive)
[27]
  GI50: 10.3 µM (inactive)
[28]
  GI50: 3.72 µM (inactive)
[29]
  GI50: 3.37 µM (inactive)
[30]
  GI50: 3.96 µM (inactive)
[56]
  GI50: 2.06 µM (inactive)
[31]
  GI50: 3.32 µM (inactive)
[32]
  GI50: 2.76 µM (inactive)
[33]
  GI50: 3.96 µM (inactive)
[34]
  GI50: 4.9 µM (inactive)
[35]
  GI50: 4.22 µM (inactive)
[36]
  GI50: 2.75 µM (inactive)
[37]
  GI50: 2.69 µM (inactive)
[38]
  GI50: 1.53 µM (inactive)
[39]
  GI50: 2.98 µM (inactive)
[40]
  GI50: 3.11 µM (inactive)
[41]
  GI50: 3.88 µM (inactive)
[42]
  GI50: 4.98 µM (inactive)
[43]
  GI50: 1.62 µM (inactive)
[57]
  GI50: 3.89 µM (inactive)
[44]
  GI50: 16.2 µM (inactive)
[45]
  GI50: 2.58 µM (inactive)
[46]
  GI50: 4.24 µM (inactive)
[47]
  GI50: 3.44 µM (inactive)
[48]
  GI50: 3.85 µM (inactive)
[49]
  GI50: 3.72 µM (inactive)
[50]
  GI50: 3.51 µM (inactive)
[51]
  GI50: 5.87 µM (inactive)
[52]
  GI50: 2.86 µM (inactive)
[53]
  GI50: 4.78 µM (inactive)
[54]
  GI50: 3.32 µM (inactive)
